Measurements reported in US20020045638A1, “Method of treating estrogen receptor positive carcinoma” (priority 2000, published 2002).
Where two headings read alike, the source gives them in different places.

Tests used:
[1] = tested on: BG-1 human ovarian cancer cells; assay: Inhibition of growth of BG-1 ovarian cancer cells (MTT), with MacSynergy II synergy analysis; format: cell-based; conditions: for inhibition at 0.005 µM / inhibition at 0.01 µM / inhibition at 0.05 µM / inhibition at 0.1 µM / inhibition at 0.2 µM / inhibition at 0.4 µM: Homo sapiens, read-out: Percent Inhibition; for Percent Inhibition: Table G, ERA-923 0 nM
Method: In these test procedures, rapamycin 42-ester with 3-hydroxy-2-(hydroxymethyl)-2-methylpropionic acid was used as a representative rapamycin, and 2-(4-hydroxy-phenyl)-3-methyl-1-[4-(2-piperdin-1-yl-ethoxy)-benzyl-1 H-indol-5-ol, raloxifene, and 4-hydroxytamoxifen were used as representative antiestrogens.
One day before the experiment, cells were plated in 96-well plates at a cell density of 2,500 cells/well in IMEM medium supplemented with 10% fetal bovine serum. The next day, cells were treated with various concentrations of antiestrogen and rapamycin 42-ester with 3-hydroxy-2-(hydroxymethyl)-2-methylpropionic acid (referred to as CCI-779 in the tables below). Five or six-days later, cell growth was monitored.

MCF-7 tumors = assay: Growth of MCF-7 breast carcinoma implanted in nude mice; format: in vivo; conditions: for Tumor size (mean ± standard error): 5 mg/kg CCI-779 PO q2d days 1-9
Method: In the third standard pharmacological test procedure, mice implanted with MCF-7 tumors were treated with a combination of ERA-923 and CCI-779. […] ERA-923 was dissolved in 1% Tween 80 and 0.9% NaCl Injection USP. Drug was aliquoted into daily doses using 10.0 ml glass bottles and frozen at −20° C. until needed. CCI-779 was made fresh using a 5% ETOH, 4.9% Phosal and 0.1% Tween 80 in Sterile Water. 0.2 ml of each drug was given orally starting the day after tumor implantation. ERA 923 was given daily for the duration of the experiment and CCI-779 was given every other day for the first 10 days. The control vehicles were given on the same regime as the drugs. MCF7 cells were cultured in IMEM containing 5% Fetal Bovine Serum with passages varying from 2-20. After trypsinization tumors were resuspended in IMEM with 2% Serum at a 1:1 ratio with Matrigel. 10 million cells were injected subcutaneously into the mammary tissue of each mouse using a 1.0 ml tuberculin syringe with a 23 3/4 gauge needle. Five to six week old female ovariectomized athymic nu/nu mice (Charles River Labs: Wilmington, Mass.) weighing from 20.0-23.0 g were used. The animals were housed 5 to a cage in a Microisolator Open Rack System (Lab Products: Maywood, N.J.). Each mouse received a 17β-Estradiol pellet (0.72 mg/pellet-60 day release). The pellets were injected with a 10 gauge trochar into the lateral side of the neck between the ear and the shoulder 1-2 weeks prior to tumor injection. Control groups were 15 mice/vehicle whereas the drug groups were 10 mice/drug. Tumors were measured weekly by means of solar calipers (Cole-Parmer Instuments: Vernon Hills, Ill.) and tumor weights were estimated from tumor diameters by the following formula:
Tumor weight (mg)=tumor length (mm)×tumor width (mm)^2/2.
Mice were euthanized 36 days after tumor injection by CO2 inhalation. […] Nude mice bearing MCF-7 tumors were given ERA-923, CCI-779 or the combination of both drugs.

[2] = tested on: MCF-7 human breast cancer cells; assay: Inhibition of growth of MCF-7 breast cancer cells (MTT), with MacSynergy II synergy analysis; conditions: for inhibition at 0.005 µM / inhibition at 0.01 µM / inhibition at 0.05 µM / inhibition at 0.1 µM / inhibition at 0.2 µM / inhibition at 0.4 µM: Homo sapiens;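 on all read-outs here: cells treated five or six days with single agents or combinations, growth read by MTT, synergy surface equals observed % inhibition minus Bliss additive prediction, values under 0% signal antagonism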
Method: MCF-7 human breast cancer cells were maintained at 37° C. in a humidified atmosphere of 5% CO2 and 95% air in IMEM medium supplemented with 10% fetal bovine serum. […] One day before the experiment, cells were plated in 96-well plates at a cell density of 2,500 cells/well in IMEM medium supplemented with 10% fetal bovine serum. The next day, cells were treated with various concentrations of antiestrogen and rapamycin 42-ester with 3-hydroxy-2-(hydroxymethyl)-2-methylpropionic acid (referred to as CCI-779 in the tables below). Five or six-days later, cell growth was monitored. MTT solution (20 ul) (0.5 mg/ml) was added to each well and cells were incubated for an additional 4 h. The solution was then removed and 150 ul of DMSO added. The intensity of dark blue color corresponding to number of cells was read at 540 nm with an automated plate reader.
Briefly, theoretical additive interactions were calculated from the dose-response curves of each individual drug based on Bliss independence model. The calculated additive surface was then subtracted from the experimental surface to obtain a synergy surface representing % inhibition above the calculated additive value-synergy index. […] Likewise, any peak below the 0% plane is indicative of antagonism.

SMILES: CO[C@H]1C[C@@H]2CC[C@@H](C)[C@@](O)(O2)C(=O)C(=O)N2CCCC[C@H]2C(=O)O[C@H]([C@H](C)C[C@@H]2CC[C@@H](OC(=O)C(C)(CO)CO)[C@H](OC)C2)CC(=O)[C@H](C)/C=C(\C)[C@@H](O)[C@@H](OC)C(=O)[C@H](C)C[C@H](C)/C=C/C=C/C=C/1C [CCI-779, rapamycin 42-ester with 3-hydroxy-2-(hydroxymethyl)-2-methylpropionic acid]
- inhibition at 0.005 µM ([1]; Table H, CCI-779 5 nM, 4-Hydroxytamoxifen 0 nM): 21.4%
- inhibition at 0.01 µM ([1]; Table H, CCI-779 10 nM, 4-Hydroxytamoxifen 0 nM): 24.9%
- inhibition at 0.05 µM ([1]; Table H, CCI-779 50 nM, 4-Hydroxytamoxifen 0 nM): 56.3%
- inhibition at 0.1 µM ([1]; Table H, CCI-779 100 nM, 4-Hydroxytamoxifen 0 nM): 56.4%
- inhibition at 0.2 µM ([1]; Table H, CCI-779 200 nM, 4-Hydroxytamoxifen 0 nM): 60.7%
- inhibition at 0.4 µM ([1]; Table H, CCI-779 400 nM, 4-Hydroxytamoxifen 0 nM): 64.9%
- inhibition at 0.005 µM ([1]; Table I, CCI-779 5 nM, Raloxifene 0 nM): 8.26%
- inhibition at 0.01 µM ([1]; Table I, CCI-779 10 nM, Raloxifene 0 nM): 12.5%
- inhibition at 0.05 µM ([1]; Table I, CCI-779 50 nM, Raloxifene 0 nM): 37.7%
- inhibition at 0.1 µM ([1]; Table I, CCI-779 100 nM, Raloxifene 0 nM): 42.1%
- inhibition at 0.2 µM ([1]; Table I, CCI-779 200 nM, Raloxifene 0 nM): 48.4%
- inhibition at 0.4 µM ([1]; Table I, CCI-779 400 nM, Raloxifene 0 nM): 53%
- Percent Inhibition ([1]; CCI-779 5 nM): 19.98%
- Percent Inhibition ([1]; CCI-779 10 nM): 22.68%
- Percent Inhibition ([1]; CCI-779 50 nM): 49.76%
- Percent Inhibition ([1]; CCI-779 100 nM): 58.79%
- Percent Inhibition ([1]; CCI-779 200 nM): 55.65%
- Percent Inhibition ([1]; CCI-779 400 nM): 61.94%
- Tumor size (mean ± standard error) (MCF-7 tumors; day 14 after tumor implantation): 260 ± 18 mg
- Tumor size (mean ± standard error) (MCF-7 tumors; day 21 after tumor implantation): 485 ± 53 mg
- Tumor size (mean ± standard error) (MCF-7 tumors; day 28 after tumor implantation): 704 ± 63 mg
- Tumor size (mean ± standard error) (MCF-7 tumors; day 36 after tumor implantation): 1123 ± 134 mg
- inhibition of tumor growth (MCF-7 tumors; nude mice bearing MCF-7 tumors, growth inhibition=experimental value−200 (baseline)/control value −200): approximately 35%
- increase of growth inhibition as estimated by the IC50 ([2]; CCI-779 in the presence of non-inhibitory concentrations of ERA-923): approximately 40 fold
- inhibition at 0.005 µM ([2]; MCF7, read-out: Percent Inhibition, Table B, CCI-779 5 nM, 4-Hydroxytamoxifen 0 nM): -16.5%
- inhibition at 0.01 µM ([2]; MCF7, read-out: Percent Inhibition, Table B, CCI-779 10 nM, 4-Hydroxytamoxifen 0 nM): 1.47%
- inhibition at 0.05 µM ([2]; MCF7, read-out: Percent Inhibition, Table B, CCI-779 50 nM, 4-Hydroxytamoxifen 0 nM): 15%
- inhibition at 0.1 µM ([2]; MCF7, read-out: Percent Inhibition, Table B, CCI-779 100 nM, 4-Hydroxytamoxifen 0 nM): 24.6%
- inhibition at 0.2 µM ([2]; MCF7, read-out: Percent Inhibition, Table B, CCI-779 200 nM, 4-Hydroxytamoxifen 0 nM): 25.2%
- inhibition at 0.4 µM ([2]; MCF7, read-out: Percent Inhibition, Table B, CCI-779 400 nM, 4-Hydroxytamoxifen 0 nM): 34%
- inhibition at 0.005 µM ([2]; MCF7, read-out: Percent Inhibition, Table C, CCI-779 5 nM, Raloxifene 0 nM): -13.8%
- inhibition at 0.01 µM ([2]; MCF7, read-out: Percent Inhibition, Table C, CCI-779 10 nM, Raloxifene 0 nM): -3.3%
- inhibition at 0.05 µM ([2]; MCF7, read-out: Percent Inhibition, Table C, CCI-779 50 nM, Raloxifene 0 nM): 35.3%
- inhibition at 0.1 µM ([2]; MCF7, read-out: Percent Inhibition, Table C, CCI-779 100 nM, Raloxifene 0 nM): 38.1%
- inhibition at 0.2 µM ([2]; MCF7, read-out: Percent Inhibition, Table C, CCI-779 200 nM, Raloxifene 0 nM): 38.1%
- inhibition at 0.4 µM ([2]; MCF7, read-out: Percent Inhibition, Table C, CCI-779 400 nM, Raloxifene 0 nM): 39.8%
- inhibition at 0.005 µM ([2]; MCF7, read-out: Percent Inhibition, Table E, CCI-779 0 nM + CCI-779 5 nM): -4.19%
- inhibition at 0.01 µM ([2]; MCF7, read-out: Percent Inhibition, Table E, CCI-779 0 nM + CCI-779 10 nM): 10.2%
- inhibition at 0.05 µM ([2]; MCF7, read-out: Percent Inhibition, Table E, CCI-779 0 nM + CCI-779 50 nM): 49.8%
- inhibition at 0.1 µM ([2]; MCF7, read-out: Percent Inhibition, Table E, CCI-779 0 nM + CCI-779 100 nM): 46.8%
- inhibition at 0.2 µM ([2]; MCF7, read-out: Percent Inhibition, Table E, CCI-779 0 nM + CCI-779 200 nM): 53.5%
- inhibition at 0.4 µM ([2]; MCF7, read-out: Percent Inhibition, Table E, CCI-779 0 nM + CCI-779 400 nM): 55.3%
- inhibition at 0.005 µM ([2]; MCF7, read-out: Percent Inhibition, Table E, CCI-779 5 nM + CCI-779 5 nM): 13.2%
- inhibition at 0.01 µM ([2]; MCF7, read-out: Percent Inhibition, Table E, CCI-779 5 nM + CCI-779 10 nM): 18.6%
- inhibition at 0.05 µM ([2]; MCF7, read-out: Percent Inhibition, Table E, CCI-779 5 nM + CCI-779 50 nM): 49.2%
